Among the data in patent US9840464B2, “IAP binding compounds” (TetraLogic Birinapant UK Ltd., priority 2004, dated 2017) are EC50 and Kd values, retold here.

Each structure is given as a SMILES string.

Chain of XIAP-BIR3 (P98170 241-356 limits assumed): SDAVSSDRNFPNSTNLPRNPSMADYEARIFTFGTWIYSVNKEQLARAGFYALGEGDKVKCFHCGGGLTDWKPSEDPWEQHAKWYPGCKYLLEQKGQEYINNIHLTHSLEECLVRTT

For the first assay, the system named is SK-OV-3 cells. Kind of assay: MTT cell growth/survival assay. The assay is classed as cell-based. As to conditions: Homo sapiens, 72 hrs incubation, drug concentration that results in 50% cell survival. The procedure: The MTT assay is an example of an assay that has been used for measuring cell growth as previously described (Hansen, M. B., Nielsen, S. E., and Berg, K. J. Immunol. Methods 1989, 119, 203-210) and incorporated herein by reference in its entirety. Briefly, SK-OV-3 cells were seeded in 96-well plates in McCoy's medium containing 10% fetal bovine serum […] (20,000 per well) and incubated overnight at 37° C. Next day, test compounds were added at various concentrations typically from about 10 to about 0.0001 μM and the plates were incubated at 37° C. for an additional 72 hrs. This incubation time was optimal for measuring inhibitory effects of different analogs. 50 microliters of 5 mg/mL MTT reagent to each well was added and the plates were incubated at 37° C. for 3 hours. At the end of incubation period, 50 microliters of DMSO was added to each well to dissolve cells and the optical density (OD) of the wells was measured with a microplate reader (Victor^2 1420, Wallac, Finland) at 535 nm. Cell survival (CS) was calculated by the following equation: CS=(OD treated well/mean OD control wells)×100%
The EC50, defined as the drug concentration that results in 50% CS, was derived by calculating the point where the dose-response curve crosses the 50% CS point using GraphPad Prism.
Regarding `CNC(C)C(=O)NC(C(=O)N1CCCC1Cc1c[nH]c2cc(F)ccc12)C1CCCCC1` (stereo not shown) [Entry 14-104], a half-maximal response (EC50) required 0.515 ± 0.093 µM.

On to `CNC(C)C(=O)NC(C(=O)N1CCCC1Cc1cn(CCOCCOCCOC)c2cc(F)ccc12)C1CCCCC1` (stereo not shown) [Entry 16-109, N-{1-Cyclohexyl-2-[2-(6-fluoro-1-{2-[2-(2-methoxy-ethoxy)-ethoxy]-ethyl}-1H-indol-3-ylmethyl)-pyrrolidin-1-yl]-2-oxo-ethyl}-2-methylamino-propionamide], for which the midpoint of the response, the EC50, lay at 0.06 ± 0.026 µM. Compared with the last compound, the EC50 is about 8.6-fold lower.

The next assay has as its target XIAP-BIR3 (Homo sapiens, UniProt P98170). As to the kind of experiment: XIAP BIR3 fluorescence polarization binding assay (competition with AbuRPF-K(5-Fam)-NH2). Conditions: 5 nM AbuRPF-K(5-Fam)-NH2, 40 nM XIAP-BIR3, pH 7.5; Kd calculated from measured IC50; read-out: KD Range. As for the experimental part:
Binding constants (Kd) were measured using fluorescence polarization as described by Zaneta Nikolovska-Coleska, Renxiao Wang, Xueliang Fang, Hongguang Pan, York Tomita, Peng Li, Peter P. Roller, Krzysztof Krajewski, Naoyuki Saito, Jeanne Stuckey and Shaomeng Wang, in “Development and Optimization of a Binding Assay for the XIAP BIR3 Domain Using Fluorescence Polarization”, Analytical Biochemistry 2004, 332, 261-273). Briefly, test IAP binding compounds at various concentrations for binding measurements were mixed with 5 nM fluorescently labeled peptide (AbuRPF-K(5-Fam)-NH2) and 40 nM of XIAP-BIR3 for 15 minutes at room temperature in 100 μL of 0.1M Potassium Phosphate buffer, pH 7.5 containing 100 μg/ml bovine γ-globulin. Following incubation, the polarization values (mP) were measured on a Victor^2V using a 485 nm excitation filter and a 520 nm emission filter. IC50 values were determined from the plot using nonlinear least-squares analysis using GraphPad Prism. The Kd values of competitive inhibitors were calculated using the equation described by Zaneta Nikolovska-Coleska et al. based upon the measured IC50 values, the Kd value of the probe and XIAP BIR3 complex, and the concentrations of the protein and probe in the competition assay. In various examples of IAP binding or IAP binding cargo molecules ranges for Kd values: Group A: Kd<0.1 μM; Group B: Kd=0.1-1 μM; Group C: Kd=1-10 μM; Group D: Kd>10 μM.
On to `CC(NC=O)C(=O)NC(C(=O)N1CCCC1Cc1coc2ccccc12)C(C)C` (stereo not shown) [Entry 5-67], for which the dissociation constant (Kd) was over 10 µM.

Consider `CCNC(C)C(=O)NC(C(=O)N1CCCC1Cc1coc2ccccc12)C(C)C` (stereo not shown) [Entry 5-68], for which the equilibrium dissociation constant (Kd) was 1 to 10 µM.

Consider `CC(NCC1CC1)C(=O)NC(C(=O)N1CCCC1Cc1coc2ccccc12)C(C)C` (stereo not shown) [Entry 5-70], for which the dissociation constant (Kd) was 1 to 10 µM.

Consider `CC(C)C(NC(=O)C1CCCN1)C(=O)N1CCCC1Cc1coc2ccccc12` (stereo not shown) [Entry 5-74], for which the Kd was over 10 µM.

With `CC(N)C(=O)NC(C(=O)N1CCCC1Cc1coc2ccc(O)cc12)C(C)C` (stereo not shown) [Entry 6-75, 2-Amino-N-{1-[2-(5-hydroxy-benzofuran-3-ylmethyl)-pyrrolidine-1-carbonyl]-2-methyl-propyl}-propionamide], the Kd was 1 to 10 µM.

With `COc1ccc2occ(CC3CCCN3C(=O)C(NC(=O)C(C)N)C(C)C)c2c1` (stereo not shown) [Entry 7-76, 2-Amino-N-{1-[2-(5-methoxy-benzofuran-3-ylmethyl)-pyrrolidine-1-carbonyl]-2-methyl-propyl}-propionamide], the dissociation constant (Kd) is 1 to 10 µM.

`CC(N)C(=O)NC(C(=O)N1CCCC1Cc1coc2ccc(OCC3CC3)cc12)C(C)C` (stereo not shown) [Entry 7-77]: the Kd was over 10 µM.

For the compound `CC(N)C(=O)NC(C(=O)N1CCCC1Cc1coc2ccc(-c3ccncc3)cc12)C(C)C` (stereo not shown) [Entry 8-78], the dissociation constant Kd was 0.1 to 1 µM.

In the case of `CC(N)C(=O)NC(C(=O)N1CCCC1Cc1c(Br)oc2ccccc12)C(C)C` (stereo not shown) [Entry 9-80], the Kd was 0.1 to 1 µM.

Take `CC(C)[C@H](NC(=O)[C@H](C)N)C(=O)N1CCC[C@H]1Cc1c(-c2ccncc2)oc2ccccc12` [Entry 9-81, 2S-Amino-N-{2-methyl-1S-[2S-(2-pyridin-4-yl-benzofuran-3-ylmethyl)-pyrrolidine-1-carbonyl]-propyl}-propionamide]: the dissociation constant (Kd) was under 0.1 µM.

As to `CC(N)C(=O)NC(C(=O)N1CCCC1Cc1c(-c2cccnc2)oc2ccccc12)C(C)C` (stereo not shown) [Entry 9-82], the dissociation constant Kd is 0.1 to 1 µM.

In the case of `CC(N)C(=O)NC(C(=O)N1CCCC1Cc1c(-c2nccs2)oc2ccccc12)C(C)C` (stereo not shown) [Entry 9-85], the Kd was 0.1 to 1 µM.

Regarding `CC(N)C(=O)NC(C(=O)N1CCCC1Cc1c(-c2cnccn2)oc2ccccc12)C(C)C` (stereo not shown) [Entry 9-86], the dissociation constant (Kd) was under 0.1 µM.

For `CC(N)C(=O)NC(C(=O)N1CCCC1Cc1c(-c2ccccc2)[nH]c2ccccc12)C(C)C` (stereo not shown) [Entry 9-88], the Kd is 1 to 10 µM.

Consider `CCOC(=O)CCc1oc2ccccc2c1CC1CCCN1C(=O)C(NC(=O)C(C)N)C(C)C` (stereo not shown) [Entry 10-89, 3-(3-{1-[2-(2-Amino-propionylamino)-3-methyl-butyryl]-pyrrolidin-2-ylmethyl}-benzofuran-2-yl)-propionic acid ethyl ester], for which the Kd was 1 to 10 µM.

In the case of `CC(N)C(=O)NC(C(=O)N1CCCC1Cc1c(CCC(=O)O)oc2ccccc12)C(C)C` (stereo not shown) [Entry 10-90], the Kd is 0.1 to 1 µM.

On to `C[C@H](N)C(=O)N[C@H]1CCCNC(=O)CCc2oc3ccccc3c2C[C@@H]2CCCN2C1=O` [Entry 11-91, Ornithine-derived Lactam], for which the Kd was 0.1 to 1 µM.

Take `CC(N)C(=O)NC1CCCCNC(=O)CCc2oc3ccccc3c2CC2CCCN2C1=O` (stereo not shown) [Entry 12-92]: the equilibrium dissociation constant (Kd) was 1 to 10 µM.

As to `C[C@H](N)C(=O)N[C@H]1Cc2ccc(cc2)OCCCc2oc3ccccc3c2C[C@@H]2CCCN2C1=O` [Entry 13-93, Tyrosine-derived Cyclic Ether], the Kd was 0.1 to 1 µM.

With `CC(=O)n1cc(C[C@@H]2CCCN2C(=O)[C@@H](NC(=O)[C@H](C)N)C(C)C)c2ccccc21` [Entry 14-94, N-{1S-[2S-(1-Acetyl-1H-indol-3-ylmethyl)-pyrrolidine-1-carbonyl]-2-methyl-propyl}-2S-amino-propionamide], the Kd is under 0.1 µM.

Regarding `CC(=O)n1cc(CC2CCCN2C(=O)C(NC(=O)CN)C(C)C)c2ccccc21` (stereo not shown) [Entry 14-95], the Kd is over 10 µM.

Regarding `CNC(C)C(=O)NC(C(=O)N1CCCC1Cc1cn(C(C)=O)c2cc(F)ccc12)C(C)(C)C` (stereo not shown) [Entry 14-96], the dissociation constant (Kd) was 0.1 to 1 µM.

In the case of `CNC(C)C(=O)NC(C(=O)N1CCCC1Cc1cn(C(C)=O)c2cc(F)ccc12)C1CCCCC1` (stereo not shown) [Entry 14-97], the Kd is 0.1 to 1 µM.

For the compound `CC(=O)n1cc(CC2CCCN2C(=O)C(NC(=O)C(C)N)C(C)C)c2cccc(C)c21` (stereo not shown) [Entry 14-98], the Kd was under 0.1 µM.

Turning to `CC(C)[C@H](NC(=O)[C@H](C)N)C(=O)N1CCC[C@H]1Cc1c[nH]c2ccccc12` [Entry 14-99, 2S-Amino-N-{1S-[2S-(1H-indol-3-ylmethyl)-pyrrolidine-1-carbonyl]-2-methyl-propyl}-propionamide], the Kd is 0.1 to 1 µM.

`Cc1cccc2c(CC3CCCN3C(=O)C(NC(=O)C(C)N)C(C)C)c[nH]c12` (stereo not shown) [Entry 14-100]: the Kd was under 0.1 µM.

For the compound `CC(NC(=O)OC(C)(C)C)C(=O)NC(C(=O)N1CCCC1Cc1cn(C(=O)OC(C)(C)C)c2ccccc12)C(C)C` (stereo not shown) [Entry 14-101], the dissociation constant Kd was over 10 µM.

With `CC#CCn1cc(CC2CCCN2C(=O)C(NC(=O)C(C)N)C(C)C)c2ccccc21` (stereo not shown) [Entry 14-102], the Kd is 0.1 to 1 µM.

Regarding `C#CCn1cc(CC2CCCN2C(=O)C(NC(=O)C(C)N)C(C)C)c2ccccc21` (stereo not shown) [Entry 14-103], the Kd was under 0.1 µM.

In the case of `CNC(C)C(=O)NC(C(=O)N1CCCC1Cc1c[nH]c2cc(F)ccc12)C1CCCCC1` (stereo not shown) [Entry 14-104], the Kd is 0.1 to 1 µM.

For the compound `Cc1ccc(S(=O)(=O)n2cc(C[C@@H]3CCCN3C(=O)[C@@H](NC(=O)[C@H](C)N)C(C)C)c3ccccc32)cc1` [Entry 15-107, 2S-Amino-N-(2-methyl-1S-{2S-[1-(toluene-4-sulfonyl)-1H-indol-3-ylmethyl]-pyrrolidine-1-carbonyl}-propyl)-propionamide], the Kd is under 0.1 µM.

With `CNC(C)C(=O)NC(C(=O)N1CCCC1Cc1c(-c2cccs2)[nH]c2cc(F)ccc12)C(C)(C)C` (stereo not shown) [Entry 15-108], the equilibrium dissociation constant (Kd) was under 0.1 µM.

Consider `CNC(C)C(=O)NC(C(=O)N1CCCC1Cc1cn(CCOCCOCCOC)c2cc(F)ccc12)C1CCCCC1` (stereo not shown) [Entry 16-109, N-{1-Cyclohexyl-2-[2-(6-fluoro-1-{2-[2-(2-methoxy-ethoxy)-ethoxy]-ethyl}-1H-indol-3-ylmethyl)-pyrrolidin-1-yl]-2-oxo-ethyl}-2-methylamino-propionamide], for which the Kd was 0.1 to 1 µM.

As to `CCC(NC)C(=O)NC(C(=O)N1CCCC1Cc1cn(CCOCCOCCOC)c2ccccc12)C1CCCCC1` (stereo not shown) [Entry 16-110], the Kd is 0.1 to 1 µM.

Take `CNC(C)C(=O)NC(C(=O)N1CCCC1Cc1cn(CCOCCOCCOC)c2ccccc12)C1CCCCC1` (stereo not shown) [Entry 16-111]: the Kd is 0.1 to 1 µM.

As to `CNC(C)C(=O)NC(C(=O)N1CCCC1Cc1c(Br)n(CCOCCOCCO)c2cc(F)ccc12)C(C)(C)C` (stereo not shown) [Entry 16-112], the Kd was under 0.1 µM.

Turning to `CNC(C)C(=O)NC(C(=O)N1CCCC1Cc1c(Br)n(CCOCCOCCOC)c2cc(F)ccc12)C(C)(C)C` (stereo not shown) [Entry 16-113], the Kd is under 0.1 µM.

Take `CNC(C)C(=O)NC(C(=O)N1CCCC1Cc1c(-c2cccs2)n(CCOCCOCCOC)c2cc(F)ccc12)C(C)(C)C` (stereo not shown) [Entry 16-114]: the Kd was under 0.1 µM.
